Consider one compound from US20220096376A1, “DRUG DELIVERY PLATFORM USING W/O/W-TYPE TRIOLEIN EMULSION PROMOTIVE OF BLOOD-BRAIN BARRIER OPENING” (PUSAN NATIONAL UNIVERSITY INDUSTRY-UNIVERSITY COOPERATION …, priority 2019, published 2022).

SMILES strings stand for the structures. Where “and” joins values, the source holds several entries; their conditions need not be identical. Equal values may be shown once.

The nature of the series: Confirmation of drug delivery activity to brain (doxorubicin concentration by fluorometer). Type of series: in vivo. As to conditions: rabbit. As to the method: A triolein emulsion having a W/O/W double structure and an average particle diameter of 7 μm was prepared in the same manner as described above. After diluting by mixing 0.2 ml (2%) of the emulsion in 10 ml of physiological saline, 7 ml of the emulsion diluted in the same procedure as in the experiment in which the trypan blue was added to 1.7 kg male rabbits distributed from Semtako and doxorubicin, a water-soluble drug, were injected, and 2 hours later, the brain of the rabbit was excised and the concentration of doxorubicin was measured using a fluorometer. At this time, three brain tissues were taken off and measured three times.

[1] abbreviates: 7 ml diluted W/O/W triolein emulsion and doxorubicin injected, 2 hours later, single measurements.
[2] abbreviates: with W/O/W triolein emulsion, 2 hours, Average.

Regarding `COc1cccc2c1C(=O)c1c(O)c3c(c(O)c1C2=O)C[C@@](O)(C(=O)CO)C[C@@H]3O[C@H]1C[C@H](N)[C@H](O)[C@H](C)O1` [Doxorubicin, doxorubicin], under setting [1], the “Doxorubicin concentration in the left brain (RFU)” value was 64 RFU and 77 RFU and 89 RFU and 78 RFU and 65 RFU and 70 RFU and 53 RFU and 88 RFU; the “Doxorubicin concentration in the right brain (RFU)” value is 420 RFU and 445 RFU and 431 RFU and 444 RFU and 455 RFU and 464 RFU and 437 RFU and 428 RFU. Also, under setting [2], the “Doxorubicin concentration in the left brain (RFU)” value worked out at 73.56 RFU, the “Doxorubicin concentration in the right brain (RFU)” value amounted to 439.11 RFU and the “Right brain doxorubicin/left brain doxorubicin ratio” value is recorded as 6.12.
